Measured values from the NIST ThermoML archive (doi:10.1016/j.fluid.2014.09.014).

Assay: refractive index (other wavelength) (dimensionless); xn = mol fraction of the nth substance listed
Details: 101 kPa, Liquid, Standard Abbe refractometry

CC(C)OC(C)C [diisopropyl ether] + CO
refractive index
Details | Wavelength=40.47 nm | Wavelength=435.8 nm | Wavelength=486.1 nm | Wavelength=546.1 nm | Wavelength=587.6 nm | Wavelength=589.3 nm | Wavelength=632.8 nm | Wavelength=644 nm | Wavelength=706.5 nm
308.15 K, x2 = 0 | – | 1.36739 | 1.36407 | 1.36127 | 1.36127 | 1.35983 | 1.35853 | 1.35823 | 1.35683
308.15 K, x2 = 0.0423 | – | – | 1.36395 | 1.36116 | 1.35972 | 1.35967 | 1.35842 | 1.35813 | 1.35672
308.15 K, x2 = 0.0424 | – | 1.36729 | 1.36404 | 1.36107 | 1.35977 | 1.35973 | 1.35859 | 1.35825 | 1.35677
308.15 K, x2 = 0.082 | – | 1.36727 | 1.36394 | 1.36114 | 1.35971 | 1.35966 | 1.35842 | 1.35812 | 1.35671
308.15 K, x2 = 0.0822 | 1.37037 | 1.36742 | 1.36409 | 1.3613 | 1.35986 | 1.3598 | 1.35855 | 1.35825 | 1.35685
308.15 K, x2 = 0.1171 | 1.37018 | 1.36725 | 1.36394 | 1.36113 | 1.3597 | 1.35965 | 1.35843 | 1.35814 | 1.35672
308.15 K, x2 = 0.1271 | 1.37021 | 1.36728 | 1.36394 | 1.36115 | 1.35972 | 1.35966 | 1.35843 | 1.35813 | 1.35672
308.15 K, x2 = 0.1827 | 1.36993 | 1.367 | 1.36368 | 1.3609 | 1.35947 | 1.35942 | 1.35818 | 1.35788 | 1.35648
308.15 K, x2 = 0.2162 | 1.36973 | 1.36681 | 1.36351 | 1.36071 | 1.35928 | 1.35923 | 1.35801 | 1.35771 | 1.35631
308.15 K, x2 = 0.251 | 1.36934 | 1.36642 | 1.36312 | 1.36037 | 1.35892 | 1.35889 | 1.35764 | 1.35735 | 1.35595
308.15 K, x2 = 0.3298 | 1.36925 | 1.36633 | 1.36304 | 1.36029 | 1.35886 | 1.35881 | 1.35757 | 1.35728 | 1.35588
308.15 K, x2 = 0.3577 | 1.36902 | 1.36611 | 1.36275 | 1.36006 | 1.35865 | 1.35856 | 1.35731 | 1.35703 | 1.35565
308.15 K, x2 = 0.4497 | 1.36699 | 1.36412 | 1.36085 | 1.35815 | 1.35673 | 1.35668 | 1.35545 | 1.35516 | 1.35375
308.15 K, x2 = 0.4525 | 1.36743 | 1.36455 | 1.36128 | 1.35854 | 1.35714 | 1.35709 | 1.35586 | 1.35557 | 1.35416
308.15 K, x2 = 0.522 | 1.36511 | 1.3623 | 1.35907 | 1.35635 | 1.35495 | 1.3549 | 1.3537 | 1.35341 | 1.35202
308.15 K, x2 = 0.5543 | 1.36433 | 1.36152 | 1.35831 | 1.35561 | 1.35422 | 1.35417 | 1.35297 | 1.35268 | 1.35129
308.15 K, x2 = 0.609 | 1.36183 | 1.35906 | 1.35589 | 1.35321 | 1.35182 | 1.35177 | 1.35057 | 1.35028 | 1.34894
308.15 K, x2 = 0.6529 | 1.36027 | 1.35752 | 1.35437 | 1.35171 | 1.35032 | 1.35027 | 1.34908 | 1.34881 | 1.34745
308.15 K, x2 = 0.7504 | 1.35626 | 1.35356 | 1.35046 | 1.34787 | 1.34649 | 1.34644 | 1.34527 | 1.345 | 1.34368
308.15 K, x2 = 0.804 | 1.35193 | 1.34931 | 1.34626 | 1.34371 | 1.34236 | 1.34231 | 1.34115 | 1.34088 | 1.33959
308.15 K, x2 = 0.807 | 1.3517 | 1.34907 | 1.34606 | 1.3435 | 1.34213 | 1.34208 | 1.34093 | 1.34066 | 1.33939
308.15 K, x2 = 0.8727 | 1.34787 | 1.3453 | 1.34228 | 1.33978 | 1.33843 | 1.33838 | 1.33724 | 1.33698 | 1.33572
308.15 K, x2 = 0.9233 | 1.33956 | 1.33712 | 1.33421 | 1.33175 | 1.33046 | 1.33042 | 1.32933 | 1.32908 | 1.32789
308.15 K, x2 = 0.9253 | 1.34157 | 1.33909 | 1.33616 | 1.33368 | 1.33239 | 1.33234 | 1.33125 | 1.331 | 1.32976
308.15 K, x2 = 0.9527 | 1.33839 | 1.33598 | 1.33306 | 1.33062 | 1.32932 | 1.32928 | 1.32818 | 1.32794 | 1.32672
308.15 K, x2 = 0.9773 | 1.33485 | 1.3325 | 1.3296 | 1.32717 | 1.32591 | 1.32586 | 1.32479 | 1.32455 | 1.32336
308.15 K, x2 = 0.989 | 1.33356 | 1.33124 | 1.32836 | 1.32594 | 1.32469 | 1.32465 | 1.32358 | 1.32334 | 1.32216
308.15 K, x2 = 0.9964 | 1.33249 | 1.33018 | 1.32731 | 1.32489 | 1.32366 | 1.32361 | 1.32256 | 1.32232 | 1.32114
313.15 K, x2 = 0 | 1.3674 | 1.36447 | 1.36119 | 1.35842 | 1.357 | – | – | – | –
313.15 K, x2 = 0.0423 | 1.36734 | 1.36444 | 1.36111 | 1.35837 | 1.35693 | – | – | – | –
313.15 K, x2 = 0.0424 | 1.3674 | 1.36447 | 1.36115 | 1.35839 | 1.35696 | – | – | – | –
313.15 K, x2 = 0.082 | 1.36731 | 1.3644 | 1.36108 | 1.35823 | 1.35691 | – | – | – | –
313.15 K, x2 = 0.0822 | 1.3675 | 1.36459 | 1.36126 | 1.35853 | 1.3571 | – | – | – | –
313.15 K, x2 = 0.1171 | 1.36734 | 1.36445 | 1.36113 | 1.35838 | 1.35696 | – | – | – | –
313.15 K, x2 = 0.1271 | 1.36736 | 1.36445 | 1.36113 | 1.35841 | 1.35696 | – | – | – | –
313.15 K, x2 = 0.1827 | 1.36712 | 1.36423 | 1.36091 | 1.35818 | 1.35676 | – | – | – | –
313.15 K, x2 = 0.2162 | 1.36696 | 1.36405 | 1.36077 | 1.35802 | 1.35661 | – | – | – | –
313.15 K, x2 = 0.251 | 1.36648 | 1.36361 | 1.36031 | 1.35759 | 1.35617 | – | – | – | –
313.15 K, x2 = 0.3298 | 1.36657 | 1.36371 | 1.36044 | 1.3577 | 1.35627 | – | – | – | –
313.15 K, x2 = 0.3577 | 1.36568 | 1.36268 | 1.35958 | 1.35686 | 1.35545 | – | – | – | –
313.15 K, x2 = 0.4497 | 1.36434 | 1.36152 | 1.3583 | 1.35561 | 1.35419 | – | – | – | –
313.15 K, x2 = 0.4525 | 1.36476 | 1.36193 | 1.35868 | 1.35599 | 1.35459 | – | – | – | –
313.15 K, x2 = 0.522 | 1.36255 | 1.35976 | 1.35655 | 1.35386 | 1.35246 | – | – | – | –
313.15 K, x2 = 0.5543 | 1.36165 | 1.35887 | 1.35569 | 1.353 | – | – | – | – | –
313.15 K, x2 = 0.609 | 1.35929 | 1.35654 | 1.3534 | 1.35074 | – | – | – | – | –
313.15 K, x2 = 0.6529 | 1.35769 | 1.35496 | 1.35191 | 1.34921 | – | – | – | – | –
313.15 K, x2 = 0.7504 | 1.35369 | 1.35104 | 1.34795 | 1.34538 | – | – | – | – | –
313.15 K, x2 = 0.804 | 1.34918 | 1.34656 | 1.34353 | 1.341 | – | – | – | – | –
313.15 K, x2 = 0.807 | 1.34928 | 1.34668 | 1.34363 | 1.34112 | – | – | – | – | –
313.15 K, x2 = 0.8727 | 1.3456 | 1.34306 | 1.34009 | 1.33757 | – | – | – | – | –
313.15 K, x2 = 0.9233 | 1.33747 | 1.33508 | 1.33213 | 1.3297 | – | – | – | – | –
313.15 K, x2 = 0.9253 | 1.33918 | 1.33674 | 1.3338 | 1.33136 | – | – | – | – | –
313.15 K, x2 = 0.9527 | 1.33616 | 1.33377 | 1.33085 | 1.32843 | – | – | – | – | –
313.15 K, x2 = 0.9773 | 1.33271 | 1.3304 | 1.32749 | 1.32509 | – | – | – | – | –
313.15 K, x2 = 0.989 | 1.33146 | 1.32916 | 1.32628 | 1.32387 | – | – | – | – | –
313.15 K, x2 = 0.9964 | 1.33048 | 1.3282 | 1.32531 | 1.32292 | – | – | – | – | –
